EPA's CvTdb concentration-time database

Legend:
rat [1] = test: concentration in blood after dosing; details: male
Rat [2] = test: concentration in plasma after dosing; details: dosed: Isoeugenol, 70 mg/kg, oral, Male, F344/N
Rat [3] = test: concentration in plasma after dosing
Rat [4] = test: concentration in plasma after dosing; details: 20 min; dosed: Isoeugenol; 17 mg/kg; oral; Male; F344/N
Rat [5] = test: concentration in plasma after dosing; details: dosed: Isoeugenol, 17 mg/kg, oral, Female, F344/N
Rat [6] = test: concentration in plasma after dosing; details: dosed: Isoeugenol, 17 mg/kg, oral, Male, F344/N
Rat [7] = test: concentration in plasma after dosing; details: dosed: Isoeugenol, 17 mg/kg, oral, Female, F344/N; remark: listed apart in the source
Rat [8] = test: concentration in plasma after dosing; details: 2 h; dosed: Tetralin; 2 mg/kg; iv; Male; F344
Rat [9] = test: concentration in plasma after dosing; details: dosed: Tetralin, 2 mg/kg, iv, Male, Harlan Sprague Dawley
Rat [10] = test: concentration in plasma after dosing; details: 4 h; dosed: Tetralin; 20 mg/kg; iv; Male; F344
Rat [11] = test: concentration in plasma after dosing; details: 2 h; dosed: Tetralin; 2 mg/kg; iv; Male; Harlan Sprague Dawley
Rat [12] = test: concentration in plasma after dosing; details: dosed: Tetralin, 20 mg/kg, iv, Female, Harlan Sprague Dawley
Rat [13] = test: concentration in plasma after dosing; details: 2 h; dosed: Tetralin; 2 mg/kg; iv; Male; Harlan Sprague Dawley; remark: listed apart in the source
Rat [14] = test: concentration in plasma after dosing; details: dosed: Tetralin, 2 mg/kg, iv, Male, Harlan Sprague Dawley; remark: listed apart in the source
Rat [15] = test: concentration in plasma after dosing; details: dosed: Tetralin, 20 mg/kg, iv, Female, Harlan Sprague Dawley; remark: listed apart in the source
Rat [16] = test: concentration in plasma after dosing; details: dosed: Tetralin, 2 mg/kg, iv, Male, F344
rat [17] = test: concentration in blood after dosing; details: dosed: styrene, 3000 ppm, dermal, duration: 4 hr, male, F344

[3H][3H] [[3]H]
rat [1], dosed: benzo[a]pyrene, Sprague Dawley
Details | concentration in blood [nM]
0 h, 1.70 nmol, iv | 37.2
0 h, 3.20 nmol, oral | 0.288
0 h, 4 nmol, oral | 0.112
0.1116 h, 1.70 nmol, iv | 12
0.1125 h, 1.70 nmol, iv | 18.1
0.1153 h, 1.70 nmol, iv | 8.27
0.1252 h, 1.70 nmol, iv | 3.03
0.1473 h, 1.70 nmol, iv | 12.7
0.1638 h, 4 nmol, oral | 0.0356
0.1807 h, 4 nmol, oral | 0.233
0.182 h, 1.70 nmol, iv | 8.84
0.2047 h, 3.20 nmol, oral | 0.443
0.3049 h, 1.70 nmol, iv | 3.66
0.3458 h, 1.70 nmol, iv | 3.2
0.4131 h, 3.20 nmol, oral | 0.622
0.4184 h, 4 nmol, oral | 0.364
0.4356 h, 4 nmol, oral | 0.0332
0.443 h, 3.20 nmol, oral | 0.188
0.6282 h, 4 nmol, oral | 0.444
0.6407 h, 1.70 nmol, iv | 2.67
0.6517 h, 3.20 nmol, oral | 0.22
0.6678 h, 4 nmol, oral | 0.0641
0.6836 h, 3.20 nmol, oral | 0.741
0.6859 h, 1.70 nmol, iv | 1.6
0.8687 h, 4 nmol, oral | 0.516
0.9146 h, 1.70 nmol, iv | 2.27
0.9355 h, 1.70 nmol, iv | 0.81
0.9369 h, 4 nmol, oral | 0.0732
0.9512 h, 3.20 nmol, oral | 0.245
0.9543 h, 3.20 nmol, oral | 0.873
1.04 h, 3.20 nmol, oral | 0.279
1.135 h, 3.20 nmol, oral | 0.947
1.371 h, 1.70 nmol, iv | 1.8
1.4 h, 3.20 nmol, oral | 0.297
1.416 h, 1.70 nmol, iv | 0.882
1.435 h, 3.20 nmol, oral | 1.17
1.639 h, 3.20 nmol, oral | 0.347
1.858 h, 1.70 nmol, iv | 1.32
1.88 h, 1.70 nmol, iv | 0.331
1.886 h, 4 nmol, oral | 0.208
1.95 h, 3.20 nmol, oral | 1.17
2.33 h, 3.20 nmol, oral | 0.383
2.464 h, 3.20 nmol, oral | 1.19
2.498 h, 4 nmol, oral | 0.817
3.067 h, 3.20 nmol, oral | 1.37
3.756 h, 3.20 nmol, oral | 0.16
3.763 h, 4 nmol, oral | 0.0925
3.824 h, 1.70 nmol, iv | 1.31
3.841 h, 1.70 nmol, iv | 0.238
4.13 h, 4 nmol, oral | 0.9
4.75 h, 3.20 nmol, oral | 0.144
4.761 h, 3.20 nmol, oral | 1.39
5.695 h, 4 nmol, oral | 0.059
5.72 h, 3.20 nmol, oral | 0.0876
5.758 h, 3.20 nmol, oral | 1.58
5.767 h, 1.70 nmol, iv | 0.231
5.852 h, 1.70 nmol, iv | 1.2
7.678 h, 3.20 nmol, oral | 0.0754
7.696 h, 3.20 nmol, oral | 1.38
8.636 h, 1.70 nmol, iv | 1.06
8.719 h, 1.70 nmol, iv | 0.195
9.661 h, 3.20 nmol, oral | 1.58
9.666 h, 3.20 nmol, oral | 0.0665
11.66 h, 4 nmol, oral | 0.971
11.69 h, 3.20 nmol, oral | 1.46
11.71 h, 3.20 nmol, oral | 0.0645
11.72 h, 4 nmol, oral | 0.0461
12.06 h, 1.70 nmol, iv | 0.983
23.76 h, 4 nmol, oral | 0.0211
23.79 h, 3.20 nmol, oral | 0.0341
23.82 h, 3.20 nmol, oral | 1.25
23.82 h, 4 nmol, oral | 0.858
28.68 h, 1.70 nmol, iv | 0.0889
29.09 h, 1.70 nmol, iv | 0.82
31.89 h, 3.20 nmol, oral | 0.0299
153 s, 1.70 nmol, iv | 38.5
172 s, 1.70 nmol, iv | 16.8
225 s, 4 nmol, oral | 0.176
238 s, 3.20 nmol, oral | 0.0632
265 s, 1.70 nmol, iv | 26.5
278 s, 1.70 nmol, iv | 26.9
297 s, 3.20 nmol, oral | 0.492
321 s, 3.20 nmol, oral | 0.107
331 s, 4 nmol, oral | 0.194

C/C=C/c1ccc(O)c(OC)c1 [Isoeugenol]
Details | concentration in plasma [ng/mL]
Rat [2], 1.5 h | 209
Rat [2], 5 min | 526
Rat [5], 0.5 h | 243
Rat [5], 8 h | 18
Rat [6], 1 h | 39.5
Rat [6], 6 h | 27.7
Rat [7], 5 min | 375
Rat [7], 6 h | 160

concentration in plasma [ng/mL], Rat [3], dosed: Isoeugenol, oral, F344/N
Details | Female | Male
0.5 h, 17 mg/kg | 155 | 87.8
0.5 h, 70 mg/kg | – | 312
0.75 h, 17 mg/kg | 73.5 | 73
1 h, 17 mg/kg | 57.7 | 34.4
1.5 h, 17 mg/kg | – | 26.5
1.5 h, 70 mg/kg | – | 118
2 h, 17 mg/kg | 27.7 | –
2 min, 17 mg/kg | 48.3 | 53.9
2 min, 70 mg/kg | – | 1160
3 h, 17 mg/kg | 48.1 | –
3 h, 70 mg/kg | – | 216
4 h, 17 mg/kg | 35.3 | 37.5
5 h, 17 mg/kg | 50.1 | –
5 h, 70 mg/kg | – | 199
5 min, 17 mg/kg | 346 | 141
5 min, 70 mg/kg | – | 683
6 h, 17 mg/kg | 32.7 | 27.6
6 h, 70 mg/kg | – | 150
8 h, 17 mg/kg | 38.5 | –
8 h, 70 mg/kg | – | 362
10 min, 17 mg/kg | 161 | 148
10 min, 70 mg/kg | – | 499
20 min, 17 mg/kg | 358 | 86.1
20 min, 70 mg/kg | – | 672

Details | concentration in plasma [ng/mL]
Rat [4] | 132

c1ccc2c(c1)CCCC2 [Tetralin]
Details | concentration in plasma [µg/g]
Rat [8] | 0.0271
Rat [10] | 0.15
Rat [11] | 0.0164
Rat [13] | 0.0179

Details | concentration in plasma [µg/g]
Rat [9], 4 h | 0.00854
Rat [9], 5 min | 1.74
Rat [12], 0.505 h | 5.59
Rat [12], 8 h | 0.077
Rat [14], 0.75 h | 0.0973
Rat [14], 12 h | 0.00173
Rat [15], 0.75 h | 2.33
Rat [15], 12 h | 0.0285
Rat [16], 0.75 h | 0.105
Rat [16], 12 h | 0.00167

concentration in plasma [µg/g], Rat [3], dosed: Tetralin, iv
Details | F344 | Harlan Sprague Dawley
0.25 h, 20 mg/kg, Female | – | 9.76
0.2517 h, 2 mg/kg, Male | 0.888 | –
0.2533 h, 2 mg/kg, Male | – | 0.449
0.5033 h, 20 mg/kg, Female | – | 2.55
0.505 h, 2 mg/kg, Male | – | 0.207
0.5067 h, 2 mg/kg, Male | 0.254 | –
0.75 h, 2 mg/kg, Male | 0.107 | 0.0681
0.75 h, 20 mg/kg, Female | – | 2.11
1 h, 2 mg/kg, Male | 0.11 | 0.0492
1 h, 20 mg/kg, Female | – | 2.1
2 h, 2 mg/kg, Male | 0.0262 | 0.0157
2 h, 20 mg/kg, Female | – | 0.596
4 h, 2 mg/kg, Male | 0.0114 | 0.0103
4 h, 20 mg/kg, Female | – | 0.2
4 h, 20 mg/kg, Male | 0.158 | –
6 h, 2 mg/kg, Male | 0.00667 | 0.00504
6.017 h, 20 mg/kg, Female | – | 0.105
8 h, 2 mg/kg, Male | 0.00488 | 0.00316
8 h, 20 mg/kg, Female | – | 0.0424
12 h, 2 mg/kg, Male | 0.00332 | 0.00151
12 h, 20 mg/kg, Female | – | 0.0371
24 h, 2 mg/kg, Male | 0.00081 | –
24 h, 20 mg/kg, Female | – | 0.00866
301 s, 20 mg/kg, Male | 21 | –
303 s, 20 mg/kg, Female | – | 23.1
307 s, 2 mg/kg, Male | – | 1.68
322 s, 2 mg/kg, Male | 1.64 | –

C=Cc1ccccc1 [styrene]
rat [17]
Details | concentration in blood [ng/mL]
0.5 h | 7760
1 h | 7040
2 h | 11500
3 h | 7240
4 h | 13000

rat [1], dosed: styrene, 3000 ppm, dermal, duration: 4 hr, F344
Details | concentration in blood [ng/mL]
0.5 h | 1480
1 h | 2090
2 h | 4160
3 h | 6070
4 h | 7610
